The values below come from US10836795B2, “Dual functional novel peptide having cell permeability and bone tissue regeneration ability, and use thereof” (SEOUL NATIONAL UNIVERSITY R&DB FOUNDATION, priority 2016, dated 2020).

Data set [1] relates to dental pulp stem cells. As to the kind of experiment: MTT assay, in-vitro cytotoxicity of synthetic peptides. Type of data set: cell-based. To be noted: 50-2000 μM, 24, 48 and 72 hours. As for the experimental part:
A cell viability test was performed to evaluate the cytotoxicity of the peptides set forth in SEQ ID NOS: 1 to 6 synthesized in Example 2 above. For this purpose, dental pulp stem cells were seeded at a density of 9×10^3 cells per well into each well of a 96-well polystyrene plate in a Dulbecco's Modified Eagle's Medium (Gibco, USA) supplemented with 10% FBS (fetal bovine serum) and a 1% antibiotic-antimycotic solution (Thermo Fisher Scientific, USA), and then cultured for 24 hours. Each well was treated with various concentrations (50 μM, 100 μM, 200 μM, 400 μM, 500 μM, 800 μM, 1000 μM and 2000 μM) of the peptides set forth in SEQ ID NOS: 1 to 6. After 24 hours (1 day), 48 hours (2 days) and 72 hours (3 days), an MTT assay was performed to identify the cytotoxicity of the peptides. For the MTT assay, the medium was removed 24 hours, 48 hours, and 72 hours after treatment with peptide and each well was then treated with a mixture of 180 μl of a DMEM medium and 20 μl of a MTT solution, followed by further culturing for 1 hour. One hour later, the mixed solution was removed, each well was treated with 200 μl of dimethyl sulfoxide (DMSO) and the mixed solution was then transferred into a new 96-well plate and the cytotoxicity thereof was measured. All values were expressed as mean±standard deviation (SD) for triplicate experiments and the measured values are shown in FIG. 3.
(In general: Tetrazolium dyes change colour on reduction, which living cells bring about.)

Data set [2] deals with dental pulp stem cells. Description: Cell permeability of FITC-labeled peptides by confocal microscopy. As to conditions: for fluorescence expression at highest concentration: 1000 uM; for cell permeation ability / efficiency: 50-1000 μM. The data set is classed as cell-based. As for the experimental part: In order to identify the cell permeability of the peptides set forth in SEQ ID NOS: 1 to 6 synthesized in Example 2, fluorescein isothiocyanate (FITC) was attached to the N-terminus of each peptide. Dental pulp stem cells were seeded at a density of 3×10^4 cells into a 4-well chamber and cultured in DMEM medium for 24 hours for cell stabilization. 24 hours later, the cells were treated with the FITC-labeled peptide at various concentrations (50 μM, 100 μM, 200 μM, 500 μM, 1000 μM) for 30 minutes. The cells were treated with 100 ng/ml of copine 7 protein for 30 minutes in order to compare the cell permeability thereof with the peptide. Then, in order to compare the intracellular permeation behaviors of these peptides or the protein, each well was treated with 4% paraformaldehyde, fixed at room temperature for 10 minutes, treated with 0.5% Triton-X 100, and cultured at room temperature for 15 minutes. Then, the cells were blocked with a buffer solution (PBS) containing 3% bovine serum albumin (BSA) for 30 minutes. In the case of copine 7 protein, a CPNE7 primary antibody was diluted at a ratio of 1:100 in a buffer solution (PBS) containing 1% bovine serum albumin and reacted at 4° C. for 16 hours. A fluorescein isothiocyanate (FITC)-conjugated secondary antibody was diluted at a ratio of 1:200 and reacted at room temperature for 1 hour. Finally, the nuclei-staining dye (Hoechst 33342, blue) was treated at room temperature for 10 minutes and washed with a buffer solution (PBS), and the fluorescence intensity thereof was measured using a confocal scanning microscope (IX 70, Olympus Co, Tokyo, Japan) to determine the degree of expression. All values were expressed as mean±SD of the fluorescence intensities measured in three different areas, and were compared with the control group (no treatment, NT) (*P<0.05).

In data set [3] the test system is osteocalcin in dental pulp stem cells (DPSCs). Description: Bone differentiation ability: osteocalcin expression by immunofluorescence. The data set is classed as cell-based. As to the method: In order to identify the bone differentiation ability of the peptide set forth in SEQ ID NO: 4, which was determined to have the best cell penetration function in Example 4, and the copine 7 protein, expression difference of osteocalcin in dental pulp stem cells (DPSCs) was evaluated.
For this purpose, 1×10^5 DPSCs were suspended in 50 μl of a medium (Dulbecco's Modified Eagle's Medium, Gibco, USA) supplemented with 10% FBS (fetal bovine serum) and a 1% antibiotic-antimycotic solution (Thermo Fisher Scientific, USA) in a 24-well plate. The cells were cultured for 24 hours and then treated with the peptide set forth in SEQ ID NO: 4 at concentrations of 200 μM and 500 μM and the copine 7 protein at a concentration of 100 ng/ml, respectively, while replacing the medium with Differentiation basal medium-Osteogenic (Lonza, USA) supplemented with a supplement (hMSC Osteogenic SingleQuots, Lonza, USA) for 18 days. […] Finally, the cells were treated with the nuclei-staining dye (Hoechst 33342, blue) at room temperature for 10 minutes and washed with buffer (PBS), and the expression level of osteocalcin was determined with a confocal scanning microscope (IX 70, Olympus Co, Tokyo, Japan). All values were expressed as mean±SD of fluorescence intensity measured in three different areas and were compared with the control group (no treatment, NT) (*P<0.05).

Data set [4] relates to skull of a New Zealand white rabbit. Description: Bone regeneration ability of a peptide-containing bone graft material in a rabbit skull defect. Type of data set: in vivo. As to conditions: 3 weeks after graft. As for the experimental part:
20 mg and 40 mg of the peptide shown in SEQ ID NO: 4 were dissolved in 100 μL of purified water, and the solution was added to 0.1 g of a bone graft material, allowed to stand at 4° C. for 24 hours and lyophilized. The copine 7 protein was used as a control group in the same manner as above and was incorporated in amounts of 100 μg and 200 μg in 0.1 g of a bone graft material. A defect part with a diameter of 8 mm was formed in the skull of a New Zealand white rabbit (cuniculus) and implanted with 0.1 g of a bone graft material in each defect part. The periosteum and skin were double-sutured. The animal was sacrificed 3 weeks after graft, and the specimen was fixed in a formalin solution and embedded in tissues to obtain a specimen with a thickness of 20 um. The prepared specimen was stained with basic fuchsin and toluidine blue to prepare a non-decalcified sample. The sample was imaged with an optical microscope and analyzed histologically. All values were expressed as mean±SD (SD) of areas measured in three different samples and compared with copine 7 protein (*P<0.05).

Where [5] appears, read: FITC-labeled peptide, 30 minutes, FIG. 4.

Where a SMILES comes first, the peptide text is derived from it.

Take `CC(C)C[C@H](NC(=O)[C@@H](NC(=O)[C@@H](NC(=O)[C@@H](NC(=O)CNC(=O)[C@H](CO)NC(=O)[C@H](CC(N)=O)NC(=O)[C@H](CCCCN)NC(=O)[C@H](Cc1ccc(O)cc1)NC(=O)[C@@H](N)CO)C(C)C)C(C)C)C(C)C)C(N)=O` [SEQ ID NO: 5, SYKNSGVVVL] (H-SYKNSGVVVL-NH2): the “cytotoxicity (MTT assay)” value in the data set on dental pulp stem cells [1] is on record as “intracellularly toxic”.
Turning to `CC(C)C[C@H](NC(=O)[C@@H](NC(=O)[C@@H](NC(=O)[C@@H](NC(=O)CNC(=O)[C@H](CO)NC(=O)[C@H](CC(N)=O)NC(=O)[C@H](CCCCN)NC(=O)[C@H](Cc1ccc(O)cc1)NC(=O)[C@H](CO)NC(=O)[C@H](CCCNC(=N)N)NC(=O)[C@H](CCCNC(=N)N)NC(=O)[C@H](CCCCN)NC(=O)[C@H](CCC(N)=O)NC(=O)[C@H](CCCCN)NC(=O)[C@H](Cc1ccc(O)cc1)NC(=O)[C@H](CCCCN)NC(=O)[C@@H]1CCCN1C(=O)[C@H](CC(N)=O)NC(=O)[C@@H](N)C(C)C)C(C)C)C(C)C)C(C)C)C(N)=O` [SEQ ID NO: 6] (H-VNPKYKQKRRSYKNSGVVVL-NH2), in the data set with dental pulp stem cells [1], the “cytotoxicity (MTT assay)” value is “intracellularly toxic”.
On to “FEEGQAQWDC (Dual functional candidate peptide for cell penetration and bone tissue regeneration) [SEQ ID NO: 2, peptide from copine 7 protein, position 331-340]”, for which the “fluorescence expression at highest concentration” value in the data set on dental pulp stem cells [2] (setting [5]) is recorded as “weak fluorescence”.
With “FEEGQAQWDCVNPKYKQKRR (Dual functional candidate peptide for cell penetration and bone tissue regeneration) [SEQ ID NO: 3, peptide from copine 7 protein, position 331-350]”, the “cell permeation ability / efficiency” value in the data set on dental pulp stem cells [2] (setting [5]) is recorded as “relatively excellent cell permeation efficiency”.
In the case of “STTFEEMQKA (Dual functional candidate peptide for cell penetration and bone tissue regeneration) [SEQ ID NO: 1, peptide from copine 7 protein, position 321-330]”, in the data set with dental pulp stem cells [2] (setting [5]), the “fluorescence expression at highest concentration” value is on record as “no fluorescence expression” and the “cell permeation ability / efficiency” value was “no cell permeation ability”.
As for “VNPKYKQKRR (Dual functional peptide for cell penetration and bone tissue regeneration) [SEQ ID NO: 4, peptide from copine 7 protein, position 341-350]”, in the data set on dental pulp stem cells [2] (FITC-labeled peptide, 100 μM, 30 minutes, FIG. 4), the “fluorescence at 100 μM” value is given as “had fluorescence”. The “cell permeation ability / efficiency” value in the data set on dental pulp stem cells [2] (setting [5]) is given as “best cell permeation efficiency”. Also, the “cell permeability compared with copine 7 protein (confocal microscope)” value with dental pulp stem cells [2] (versus 100 ng/ml copine 7 protein, 30 minutes, FIG. 5A) is listed as “better cell permeability than the copine 7 protein”. Besides, the “quantified fluorescence intensity compared with copine 7 protein” value in the data set with dental pulp stem cells [2] (versus 100 ng/ml copine 7 protein, FIG. 5B) is recorded as “strong fluorescence intensity compared to the copine 7 protein”. The “expression degree of osteocalcin as fluorescence intensity” value in data set [3] (200 μM and 500 μM peptide versus 100 ng/ml group, 18 days, FIG. 6) is recorded as “relatively stronger fluorescence intensity”. Further, the “bone differentiation ability compared with copine 7 protein” value in data set [3] (DPSCs, 18 days in osteogenic medium) is on record as “superior to the copine 7 protein”. Also, the “effect of regenerating new bone at the skull defect part” value in data set [4] (bone graft material with 20 mg or 40 mg peptide versus 100 μg or 200 μg copine 7 protein, FIG. 7A) is recorded as “excellent effect of regenerating new bone”. For the same molecule, the “bone regeneration area (histomorphometric analysis)” value in data set [4] (versus copine 7 protein, FIG. 7B) is “significantly wider bone regeneration area than the copine 7 protein”.
